Measurements published in patent US20230263822A1, “MODULATION OF FACTOR 11 EXPRESSION” (Ionis Pharmaceuticals, Inc., priority 2008, published 2023).
Like-named read-outs stand apart in the source and are kept apart here. e = 2'-O-(2-methoxyethyl) (MOE); d = 2'-deoxy (DNA)

Assays:
[1] = rat, in vivo, sc, 50 mg/kg
[2] = mouse, in vivo, sc, 50 mg/kg
[3] = mouse, in vivo, sc, 50 mg/kg; remark: listed apart in the source
[4] = mouse, in vivo, sc, 50 mg/kg; remark: listed apart in the source
[5] = rat, in vivo, sc, 50 mg/kg; remark: listed apart in the source
[6] = rat, in vivo, sc, 50 mg/kg; remark: listed apart in the source

Substance	HCT [1]	Lymphocyte [1]	Neutrophil [1]	Platelets [1]	RBC [1]	WBC [1]	hemoglobin [1]	ALT [2]	AST [2]	Bilirubin [2]	Cholesterol [2]	HCT [3]	Lymphocyte [3]	Neutrophil [3]	Platelets [3]	RBC [3]	WBC [3]	hemoglobin [3]	monocytes [3]	BUN [4]	also measured
ISIS 416851: MOE gapmer, nucleobases 1275 to 1318 of SEQ ID NO: 1 (Table 8) (antisense GTGCACAGTTTCTGGCAGGC; MOE gapmer, wing and gap sizes not given here)	42%	9911	1001	734	7.4 10^6/μL	11 10^3/μL	13.7 g/dL	47 IU/L	76 IU/L	0.19 mg/dL	106 mg/dL	47%	4162 cells/μL	1619 cells/μL	984 10^3/μL	9 10^6/μL	6 10^3/μL	14 g/dL	194 cells/μL	21 mg/dL	BUN [5]: 24 mg/dL; Creatinine [5]: 70 mg/dL; Total urine protein [5]: 286 mg/dL; Urine protein/creatinine ratio [5]: 4.0; ALT [6]: 64 IU/L; AST [6]: 91 IU/L; Albumin [6]: 4; Bilirubin [6]: 0.14 mg/dL
ISIS 412225: 5-10-5 MOE gapmer GCAGCGGACGGCATTGGTGC (sugars from the 5' end e5 d10 e5, backbone and methylation of C not given here)	42%	13204	1499	673	7.4 10^6/μL	15 10^3/μL	13.4 g/dL	40 IU/L	69 IU/L	0.23 mg/dL	128 mg/dL	50%	4969 cells/μL	1547 cells/μL	574 10^3/μL	9 10^6/μL	7 10^3/μL	15 g/dL	293 cells/μL	23 mg/dL	BUN [5]: 23 mg/dL; Creatinine [5]: 58 mg/dL; Total urine protein [5]: 209 mg/dL; Urine protein/creatinine ratio [5]: 4.0; ALT [6]: 48 IU/L; AST [6]: 108 IU/L; Albumin [6]: 5; Bilirubin [6]: 0.15 mg/dL
ISIS 416856: MOE gapmer, nucleobases 1275 to 1318 of SEQ ID NO: 1 (Table 8) (antisense GGCATTGGTGCACAGTTTCT; MOE gapmer, wing and gap sizes not given here)	43%	14328	3280	740	7.7 10^6/μL	19 10^3/μL	14.1 g/dL	130 IU/L	129 IU/L	0.23 mg/dL	109 mg/dL	47%	3622 cells/μL	1292 cells/μL	753 10^3/μL	9 10^6/μL	5 10^3/μL	14 g/dL	151 cells/μL	21 mg/dL	BUN [5]: 23 mg/dL; Creatinine [5]: 48 mg/dL; Total urine protein [5]: 128 mg/dL; Urine protein/creatinine ratio [5]: 2.7; ALT [6]: 123 IU/L; AST [6]: 222 IU/L; Albumin [6]: 4; Bilirubin [6]: 0.13 mg/dL
ISIS 416860: MOE gapmer, nucleobases 1275 to 1318 of SEQ ID NO: 1 (Table 8) (antisense CGGACGGCATTGGTGCACAG; MOE gapmer, wing and gap sizes not given here)	45%	13986	1841	669	7.8 10^6/μL	17 10^3/μL	14.1 g/dL	189 IU/L	160 IU/L	0.23 mg/dL	152 mg/dL	51%	4889 cells/μL	1291 cells/μL	937 10^3/μL	10 10^6/μL	7 10^3/μL	15 g/dL	161 cells/μL	25 mg/dL	BUN [5]: 23 mg/dL; Creatinine [5]: 58 mg/dL; Total urine protein [5]: 242 mg/dL; Urine protein/creatinine ratio [5]: 4.6; ALT [6]: 70 IU/L; AST [6]: 157 IU/L; Albumin [6]: 4; Bilirubin [6]: 0.15 mg/dL
